{"source": "patent US20260286254A1", "about": "“Bleach Catalyst and Composition Comprising Said Catalyst” (Reckitt Benckiser Vanish B.V., priority 2023, published 2026)", "key": {"[1]": {"test": "Stability of bleach catalysts: UV-vis absorbance at 445 nm and appearance of alkaline solutions", "type": "physicochemical", "settings": "for Absorption at 445 nm, t = 0 / Absorption at 445 nm, t = 48 h: 0.28 mM in 50 wt. % water/50 wt. % acetone; for Absorption at 445 nm, t = 0 / Appearance, t = 0: pH 11, t = 0; for Absorption at 445 nm, t = 48 h / Appearance, t = 48 h: pH 11, t = 48 h; for Appearance, t = 0 / Appearance, t = 48 h: alkaline conditions", "procedure": "The stability of bleach catalysts having the structures shown in Table 1 was determined by preparing solutions of these compounds and measuring their UV-vis absorbance. The person skilled in the art will know how to synthesise the catalysts shown below starting from saccharine.\nA solution of each compound was prepared by dissolving each compound in a mixture of 50 wt. % water and 50 wt. % acetone. The concentration of each solution was 0.28 mM.\nThe pH of each solution was set to 11 by adding few drops of a diluted solution of sodium percarbonate to mimic the alkaline conditions of the final formula.\nThe UV-vis absorption of each solution was measured just after preparing the samples (t=0), then at 2 h and 48 h using a UV-Vis Evolution 220 FC-1135 spectrophotometer using a 2 mm quartz cuvette."}, "[2]": {"test": "Kinetic of Tropaeolin-O degradation (UV-Vis absorbance at 430 nm)", "settings": "statement in text on Table 5", "procedure": "These tests were performed following the procedure described in US2012/0205581 A1. Here, Tropaeolin-O was used as sensor molecule to describe the oxidation kinetic of the different catalysts. The catalytic activity of a bleach catalyst is given by the photocatalytic degradation of tropaeolin-O under visible light irradiation.\nThe kinetic of tropaeolin-O degradation of each sample was determined by measuring the UV-Vis absorbance of the sample every 60 seconds for a total period of 20 minutes at 430 nm. This was done using a UV-Vis Evolution 220 FC-1135 spectrophotometer.\nA base detergent system containing tropaeolin-O was prepared by adding to 1000 mL of demineralized water at 40° C., the following ingredients: • 2.92 g of Ariel Gel (as sold in the UK), • 0.088 g of Tropaeolin-O (purity ex. Sigma and used as received), • 1.75 g of Sodium percarbonate (purity: 13.3 wt. % active oxygen), • 0.10 g of bleach activator tetraacetylethylenediamine (TEAD, purity: 92 wt. % active) […]\nThe 430 nm absorption peak associated to the decomposition of the sensor molecule, i.e., Tropaeolin-O, after addition of a detergent system was followed over time. […] Absorbance in Table 5 is given in absorbance units (a.u.)"}}, "note": "“Also recorded” adds a separate entry of the source.", "data": [{"smiles": "O=S1(=O)N=C(c2ccccn2)c2ccccc21", "note": "[Bleach catalyst 1, 3-(pyridin-2-yl)-1,2-benzisothiazole-1,1-dioxide]", "values": [{"measurement": "stability of the bleach catalyst, in words", "setting": "[1]", "result": "stable"}, {"measurement": "Absorption at 445 nm, t = 0", "setting": "[1]", "result": "<0.05"}, {"measurement": "Absorption at 445 nm, t = 48 h", "setting": "[1]", "result": "<0.05"}, {"measurement": "Appearance, t = 0", "setting": "[1]", "result": "Transparent"}, {"measurement": "Appearance, t = 48 h", "setting": "[1]", "result": "Transparent"}, {"measurement": "activity / performance (tropaeolin-O decomposition), in words", "setting": "[2]", "result": "enhanced activity"}]}, {"smiles": "O=S1(=O)N=C(c2cccnc2)c2ccccc21", "note": "[Bleach catalyst 2, 3-(pyridin-3-yl)-1,2-benzisothiazole-1,1-dioxide]", "values": [{"measurement": "stability of the bleach catalyst, in words", "setting": "[1]", "result": "stable"}, {"measurement": "Absorption at 445 nm, t = 0", "setting": "[1]", "result": "<0.05"}, {"measurement": "Absorption at 445 nm, t = 48 h", "setting": "[1]", "result": "<0.05"}, {"measurement": "Appearance, t = 0", "setting": "[1]", "result": "Transparent"}, {"measurement": "Appearance, t = 48 h", "setting": "[1]", "result": "Transparent"}, {"measurement": "activity / performance (tropaeolin-O decomposition), in words", "setting": "[2]", "result": "enhanced activity"}]}, {"smiles": "CC1=NS(=O)(=O)c2ccccc21", "note": "[Bleach catalyst A, 3-methyl-1,2-benzisothiazole-1,1-dioxide]", "values": [{"measurement": "Absorption at 445 nm, t = 0", "setting": "[1]", "result": "<0.05"}, {"measurement": "Absorption at 445 nm, t = 48 h", "setting": "[1]", "result": 0.37}, {"measurement": "Appearance, t = 0", "setting": "[1]", "result": "Transparent"}, {"measurement": "Appearance, t = 48 h", "setting": "[1]", "result": "coloured/yellow; also recorded: Yellowing"}]}, {"smiles": "O=S1(=O)N=C(c2ccccc2)c2ccccc21", "note": "[Bleach catalyst B, 3-phenyl-1,2-benzisothiazole-1,1-dioxide]", "values": [{"measurement": "Absorption at 445 nm, t = 0", "setting": "[1]", "result": "<0.05"}, {"measurement": "Absorption at 445 nm, t = 48 h", "setting": "[1]", "result": "<0.05"}, {"measurement": "Appearance, t = 0", "setting": "[1]", "result": "Transparent"}, {"measurement": "Appearance, t = 48 h", "setting": "[1]", "result": "Transparent"}]}, {"smiles": "CC(C)(C)C1=NS(=O)(=O)c2ccccc21", "note": "[Bleach catalyst C, 3-tert-butyl-1,2-benzisothiazole-1,1-dioxide]", "values": [{"measurement": "Absorption at 445 nm, t = 0", "setting": "[1]", "result": "<0.05"}, {"measurement": "Absorption at 445 nm, t = 48 h", "setting": "[1]", "result": "<0.05"}, {"measurement": "Appearance, t = 0", "setting": "[1]", "result": "Transparent"}, {"measurement": "Appearance, t = 48 h", "setting": "[1]", "result": "Transparent"}]}, {"smiles": "CCCCCCCCCCCCC1=NS(=O)(=O)c2ccccc21", "note": "[Bleach catalyst D, 3-lauryl-1,2-benzisothiazole-1,1-dioxide]", "values": [{"measurement": "Absorption at 445 nm, t = 0", "setting": "[1]", "result": "<0.05"}, {"measurement": "Absorption at 445 nm, t = 48 h", "setting": "[1]", "result": 0.07}, {"measurement": "Appearance, t = 0", "setting": "[1]", "result": "Transparent"}, {"measurement": "Appearance, t = 48 h", "setting": "[1]", "result": "coloured/yellow; also recorded: Yellowing"}]}]}
